The source of these data is US11401264B2, “Heterocyclic compound” (Orizuru Therapeutics, Inc., priority 2018, dated 2022).

The test system of this assay is cardiomyocytes from double knock-in human iPS cell lines (mCherry at TNNI3 locus). Description: Experimental Example 1: mCherry (TNNI3 reporter) immunostaining measured by high contents screening. Also on record: key to average fluorescent intensity (at 30 μM): —: The symbol in Table 2 means that the average fluorescent intensity cannot be evaluated due to cell decrease. As to conditions: read on 8th day, Alexa 647 anti-mCherry, control well 797; for average fluorescent intensity (at 1 μM): test compound 1 μM added on 3rd and 6th culture days; for average fluorescent intensity (at 30 μM): test compound 30 μM added on 3rd and 6th culture days. In kind it is cell-based. In short, it runs like this: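 Double knock-in iPS lines (EmGFP at TNNI1, mCherry at TNNI3) differentiated as embryoid bodies in stirred bioreactor at 37 °C, 5% O2: BMP4/activin A/bFGF, then VEGF, IWP-3, dorsomorphin, SB431542, then VEGF alone. On day 14, dissociated cells seeded at 1.0×10^4 cells/well on iMatrix-511 in AK02-based cardiomyocyte medium.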

In the case of `CCOc1ccc(-c2nc3cc(N4Cc5cc(N(C)C)ccc5C4=O)ccc3[nH]2)cc1` [Example 61, 5-(dimethylamino)-2-(2-(4-ethoxyphenyl)-1H-benzimidazol-5-yl)isoindolin-1-one], the “average fluorescent intensity (at 1 μM)” value was 1150. Turning to `CCOc1ccc(-c2nc3cc(N4Cc5cc(N6CCN(C)CC6)ccc5C4=O)ccc3[nH]2)cc1` [Example 62, 2-(2-(4-ethoxyphenyl)-1H-benzimidazol-5-yl)-5-(4-methylpiperazin-1-yl)isoindolin-1-one], the “average fluorescent intensity (at 1 μM)” value worked out at 1004 and the “average fluorescent intensity (at 30 μM)” value is given as “—”. With `CCOc1ccc(-c2nc3cc(N4Cc5cc(-n6cccc6)ccc5C4=O)ccc3[nH]2)cc1` [Example 63, 2-(2-(4-ethoxyphenyl)-1H-benzimidazol-5-yl)-5-(1H-pyrrol-1-yl)isoindolin-1-one], the “average fluorescent intensity (at 1 μM)” value was 1194 and the “average fluorescent intensity (at 30 μM)” value was “—”. As for `CCOc1ccc(-c2nc3cc(N4Cc5cc(N(CC)CC)ccc5C4=O)ccc3[nH]2)cc1` [Example 64, 5-(diethylamino)-2-(2-(4-ethoxyphenyl)-1H-benzimidazol-5-yl)isoindolin-1-one], the “average fluorescent intensity (at 1 μM)” value is on record as 1328 and the “average fluorescent intensity (at 30 μM)” value is “—”. As to `CCOc1ccc(-c2nc3cc(N4Cc5cc(N6CCCCC6)ccc5C4=O)ccc3[nH]2)cc1` [Example 65, 2-(2-(4-ethoxyphenyl)-1H-benzimidazol-5-yl)-5-(piperidin-1-yl)isoindolin-1-one], the “average fluorescent intensity (at 1 μM)” value worked out at 1245 and the “average fluorescent intensity (at 30 μM)” value is 836. As for `COCc1ccc(-c2nc3cc(N4Cc5cc(N6CCOCC6)ccc5C4=O)ccc3[nH]2)cc1` [Example 66, 2-(2-(4-(methoxymethyl)phenyl)-1H-benzimidazol-5-yl)-5-(morpholin-4-yl)isoindolin-1-one], the “average fluorescent intensity (at 1 μM)” value is listed as 1338 and the “average fluorescent intensity (at 30 μM)” value was found to be 1358. For `O=C1c2ccc(N3CCOCC3)cc2CN1c1ccc2[nH]c(-c3ccc(F)cc3)nc2c1` [Example 67, 2-(2-(4-fluorophenyl)-1H-benzimidazol-5-yl)-5-(morpholin-4-yl)isoindolin-1-one] the same measures were 1367 and 1188. With `COc1ccc(-c2nc3cc(N4Cc5cc(N6CCCCC6)ccc5C4=O)ccc3[nH]2)cc1` [Example 68, 2-(2-(4-methoxyphenyl)-1H-benzimidazol-5-yl)-5-(piperidin-1-yl)isoindolin-1-one], the “average fluorescent intensity (at 1 μM)” value came out at 1301. Consider `COc1ccc(-c2nc3cc(N4Cc5cc(N6CCOCC6)ccc5C4=O)ccc3[nH]2)cc1` [Example 69, 2-(2-(4-methoxyphenyl)-1H-benzimidazol-5-yl)-5-(morpholin-4-yl)isoindolin-1-one], for which the “average fluorescent intensity (at 1 μM)” value is recorded as 1222 and the “average fluorescent intensity (at 30 μM)” value came out at 1942. For `COc1ccc(-c2nc3cc(N4Cc5cc(Br)ccc5C4=O)ccc3[nH]2)cc1` [Example 70, 5-bromo-2-(2-(4-methoxyphenyl)-1H-benzimidazol-5-yl)isoindolin-1-one] the same measures were 998 and 4335. For `CCN(CC)c1ccc2c(c1)CN(c1ccc3[nH]c(-c4ccc(OC)cc4)nc3c1)C2=O` [Example 71, 5-(diethylamino)-2-(2-(4-methoxyphenyl)-1H-benzimidazol-5-yl)isoindolin-1-one], the “average fluorescent intensity (at 1 μM)” value is recorded as 923 and the “average fluorescent intensity (at 30 μM)” value is “—”. Turning to `CCOc1ccc(-c2nc3cc(N4Cc5cc(N6CCOCC6)ccc5C4=O)ccc3[nH]2)cc1` [Example 72, 2-(2-(4-ethoxyphenyl)-1H-benzimidazol-5-yl)-5-(morpholin-4-yl)isoindolin-1-one], the “average fluorescent intensity (at 1 μM)” value is 1370 and the “average fluorescent intensity (at 30 μM)” value amounted to 948. Turning to `O=C1c2ccc(N3CCOCC3)cc2CN1c1ccc2[nH]c(-c3ccccc3)nc2c1` [Example 73, 5-(morpholin-4-yl)-2-(2-phenyl-1H-benzimidazol-5-yl)isoindolin-1-one], the “average fluorescent intensity (at 1 μM)” value came out at 1231 and the “average fluorescent intensity (at 30 μM)” value is 922.
